According to patent US20250115581A1, “SUBSTITUTED PIPERIDINES AS CK1A DEGRADERS” (Monte Rosa Therapeutics, Inc., priority 2022, published 2025):

Tests used:
GP2D = assay: Growth inhibition, CyQUANT Direct Cell Proliferation Assay, GP2D; assay type: cell-based; conditions: GP2D cells, 120 to 168 hours
Description: (§1) SKCO1, LS180, and LS174T cell lines were purchased from ATCC. CW2 cell line was purchased from Riken. GP2D cell line was purchased from Sigma/ECACC. All cell lines were cultured in manufacturer's recommended media at 37° C., 5% CO2. Briefly, cells were suspended in 200 μL of media and seeded at 300 to 1,800 cells per well in tissue culture treated 96-well plates with black walls and clear bottom. Plates were incubated overnight and initial (TO) read was performed the following day using CyQUANT Direct Cell Proliferation Assay Kit (Thermo Fisher Scientific) according to manufacturer's protocol. All compounds were solubilized in DMSO and prepared at 3-fold serial dilution, using 9 points starting at 30 μM as highest concentration, administered to cells and incubated for 120 to 168 hours, at which point CyQUANT assay measurement was performed using Acumen Cellista instrument (Ex/Em 480/520 nm). Media-only wells were used as blank, and 0.3% DMSO was used as DMSO-treated cell control. Growth inhibition (percent response) was calculated using the following formula in Excel: “=if ([Compound treated Day N]>[Untreated Day 0, AVG], ([Compound treated Day N]− [Untreated Day 0, AVG])/([Untreated Day N]−[Untreated Day 0, AVG])*100, ([Compound Treated Day N]−[Untreated Day 0, AVG])/([Untreated Day 0, AVG])*100)”. GI50 is the response corresponding to the 50% of untreated control.
(§2) GI50 data are reported in Tables 4a, 4b, 4c, 4d, and 4e for compounds in Table 1. In Tables 4a, 4b, 4c, 4d, and 4e below, According to the code, A represents a GI50 value of ≤0.1 μM, B represents a GI50 value >0.1 μM and ≤1 μM, C represents an GI50 value >1 μM.

LS174T = assay: Growth inhibition, CyQUANT Direct Cell Proliferation Assay, LS174T; assay type: cell-based; conditions: Homo sapiens; LS174T cells, 120 to 168 hours
Description: as §1, §2

SKCO1 = assay: Growth inhibition, CyQUANT Direct Cell Proliferation Assay, SKCO1; assay type: cell-based; conditions: Homo sapiens, SK-CO-1; SKCO1 cells, 120 to 168 hours
Description: as §1, §2

CRBN/DDB1 = CRBN/DDB1 (Homo sapiens, UniProt Q96SW2); assay: HTRF binding assay (displacement of Cy5-thalidomide probe from CRBN/DDB1); conditions: CRBN/DDB1 2.5 nM, Cy5-Thalidomide 100 nM, 30 min; geometric mean; read-out: HTRF_Thali_Disp_DR_geo_IC50
Sequence of CRBN/DDB1 (Q96SW2 whole entry): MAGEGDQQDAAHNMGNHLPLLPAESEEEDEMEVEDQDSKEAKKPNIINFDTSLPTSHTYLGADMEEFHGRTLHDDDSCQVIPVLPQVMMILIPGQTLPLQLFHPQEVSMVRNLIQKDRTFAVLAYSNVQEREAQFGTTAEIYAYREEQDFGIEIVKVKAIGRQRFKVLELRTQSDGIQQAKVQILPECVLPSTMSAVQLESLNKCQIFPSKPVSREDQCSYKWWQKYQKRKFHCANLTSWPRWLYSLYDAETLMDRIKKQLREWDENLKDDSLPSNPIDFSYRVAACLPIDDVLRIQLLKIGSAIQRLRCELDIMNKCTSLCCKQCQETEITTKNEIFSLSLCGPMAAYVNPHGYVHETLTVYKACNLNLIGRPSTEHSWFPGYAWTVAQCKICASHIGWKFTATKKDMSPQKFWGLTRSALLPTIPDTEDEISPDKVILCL
Sequence of CRBN/DDB1 (Q16531 whole entry partner): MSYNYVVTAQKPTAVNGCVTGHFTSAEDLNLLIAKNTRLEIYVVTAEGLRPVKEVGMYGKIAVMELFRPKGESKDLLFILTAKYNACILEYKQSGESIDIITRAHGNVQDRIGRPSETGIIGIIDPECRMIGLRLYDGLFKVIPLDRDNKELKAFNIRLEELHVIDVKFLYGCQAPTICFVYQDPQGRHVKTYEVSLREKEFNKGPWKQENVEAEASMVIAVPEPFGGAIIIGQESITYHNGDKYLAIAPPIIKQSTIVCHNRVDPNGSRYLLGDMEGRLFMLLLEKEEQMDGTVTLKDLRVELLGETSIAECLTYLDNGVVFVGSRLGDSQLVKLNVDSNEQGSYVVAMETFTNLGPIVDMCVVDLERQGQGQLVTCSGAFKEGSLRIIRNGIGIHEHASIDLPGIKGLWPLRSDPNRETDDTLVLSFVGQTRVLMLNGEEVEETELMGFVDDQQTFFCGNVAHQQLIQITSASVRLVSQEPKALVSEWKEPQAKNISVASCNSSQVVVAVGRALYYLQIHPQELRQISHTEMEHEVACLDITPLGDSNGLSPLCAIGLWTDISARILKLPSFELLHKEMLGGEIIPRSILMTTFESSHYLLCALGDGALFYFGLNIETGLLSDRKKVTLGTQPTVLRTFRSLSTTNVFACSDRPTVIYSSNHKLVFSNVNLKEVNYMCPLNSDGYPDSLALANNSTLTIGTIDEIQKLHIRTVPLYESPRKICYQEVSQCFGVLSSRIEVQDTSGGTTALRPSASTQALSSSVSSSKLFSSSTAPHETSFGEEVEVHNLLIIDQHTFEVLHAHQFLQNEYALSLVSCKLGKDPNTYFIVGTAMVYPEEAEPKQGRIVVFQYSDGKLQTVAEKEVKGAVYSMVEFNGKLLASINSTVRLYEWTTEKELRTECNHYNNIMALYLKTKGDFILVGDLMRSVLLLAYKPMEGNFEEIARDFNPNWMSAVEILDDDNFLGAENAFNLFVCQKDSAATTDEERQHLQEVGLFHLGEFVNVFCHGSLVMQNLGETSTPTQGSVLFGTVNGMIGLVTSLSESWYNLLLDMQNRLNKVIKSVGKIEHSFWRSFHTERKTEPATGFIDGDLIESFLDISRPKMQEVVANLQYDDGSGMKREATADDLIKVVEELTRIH
Procedure, shortened: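 HTRF displacement of Cy5-thalidomide probe (100 nM) from His-tagged CRBN/DDB1 (2.5 nM) with anti-His terbium cryptate, in HEPES/NaCl/TCEP/EDTA/Tween20 buffer; 10-point 1:3 series, 30 min at ambient temperature. 665/620 nm ratio fitted 4-parameter logistic for IC50; Ki via Cheng-Prusoff.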

CW2 = assay: Growth inhibition, CyQUANT Direct Cell Proliferation Assay, CW2; assay type: cell-based; conditions: Homo sapiens, CW-2; CW2 cells, 120 to 168 hours
Description: as §1, §2

SMILES | GI50 (GP2D) | GI50 (LS174T) | GI50 (SKCO1) | IC50 (CRBN/DDB1) | GI50 (CW2)
C[C@@H]1CN(c2ccc3c(c2)CN(C2CCC(=O)NC2=O)C3=O)C(=O)N1c1ccccc1 (stereo partly drawn) [Compound 107, 3-(5-((R)-4-methyl-2-oxo-3-phenylimidazolidin-1-yl)-1-oxoisoindolin-2-yl)piperidine-2,6-dione] | 0.1 to 1 µM | > 1 µM | 0.1 to 1 µM | 0.1 to 1 µM | ≤ 0.1 µM
O=C1CCC(N2Cc3cc(N4CCN(c5ccccc5)C4=O)ccc3C2=O)C(=O)N1 (stereo not drawn) [Compound 101, 3-(1-oxo-5-(2-oxo-3-phenylimidazolidin-1-yl)isoindolin-2-yl)piperidine-2,6-dione] | > 1 µM | > 1 µM | 0.1 to 1 µM | 0.1 to 1 µM | 0.1 to 1 µM
C[C@@H]1CN(c2ccc3c(c2)CN(C2CCC(=O)NC2=O)C3=O)C(=O)N1c1ccc(C2CC2)cc1 (stereo partly drawn) [Compound 125, 3-(5-((R)-3-(4-cyclopropylphenyl)-4-methyl-2-oxoimidazolidin-1-yl)-1-oxoisoindolin-2-yl)piperidine-2,6-dione] | 0.1 to 1 µM | ≤ 0.1 µM | ≤ 0.1 µM | 0.1 to 1 µM | ≤ 0.1 µM
